Test results published in patent US11351347B2, “Vacuum-assisted drug delivery device and method” (VacuMed, LLC., priority 2014, dated 2022).

Assay: Vacuum-assisted trans-epithelial delivery of riboflavin into rabbit corneas, compared with standard delivery after epithelium removal
Format: in vivo
Details: trans-epithelial vacuum delivery through intact epithelium, varying application time periods; compared with standard method in which the epithelium is surgically removed
Protocol: The device and method herein were tested to verify the effectiveness of the vacuum delivery system and to quantify concentrations of the standard formulation of riboflavin that is used in the process of cross-linking collagen corneal tissue in rabbit corneas. The tests employed the present invention to facilitate trans-epithelial delivery of riboflavin at varying application time periods, and compare the concentrations achieved with the concentration of riboflavin achieved through the standard method of riboflavin delivery (i.e., in which the epithelium is surgically removed). […] In other embodiments, high levels of vacuum, higher riboflavin concentrations, and the use of penetration enhancers may be used to increase the amount of riboflavin diffusion into the cornea per unit time. These animal studies clearly provide a proof of principle for the efficacious delivery of riboflavin into the cornea, through an intact epithelium, using the device and method of this invention. These studies also provide critical concentration/treatment time data for utilizing this invention.

In the case of Cc1cc2nc3c(=O)[nH]c(=O)nc-3n(C[C@H](O)[C@H](O)[C@H](O)CO)c2cc1C [riboflavin], the “riboflavin delivery to the cornea (concentration achieved)” value is reported as “equivalent to the effect of removing the corneal epithelium”.
